# Experimental data as given in PubChem BioAssay AID1259407 (Chemical Carcinogenesis Research Information System (CCRIS), 2018).
# Calls of active or inactive are those of the source. No rule for the calls is given here.
# Tested on: CCRIS mutagenicity, Ames/micronucleus/aberration tests
# Test: CCRIS mutagenicity studies
# [1] = Test System: AMES SALMONELLA TYPHIMURIUM, Strain/Indicator: TA97, Metabolic Activation: HAMSTER, LIVER, S-9, AROCLOR 1254 (10 OR 30%), Method: PREINCUBATION
# [2] = Test System: AMES SALMONELLA TYPHIMURIUM, Strain/Indicator: TA97, Metabolic Activation: RAT, LIVER, S-9, AROCLOR 1254 (10 OR 30%), Method: PREINCUBATION
# [3] = Test System: AMES SALMONELLA TYPHIMURIUM, Strain/Indicator: TA100, Metabolic Activation: NONE, Method: PREINCUBATION
# [4] = Test System: AMES SALMONELLA TYPHIMURIUM, Strain/Indicator: TA1535, Metabolic Activation: HAMSTER, LIVER, S-9, AROCLOR 1254 (10 OR 30%), Method: PREINCUBATION
# [5] = Test System: AMES SALMONELLA TYPHIMURIUM, Strain/Indicator: TA1535, Metabolic Activation: RAT, LIVER, S-9, AROCLOR 1254 (10 OR 30%), Method: PREINCUBATION
# [6] = Test System: AMES SALMONELLA TYPHIMURIUM, Strain/Indicator: TA1537, Metabolic Activation: HAMSTER, LIVER, S-9, AROCLOR 1254 (10 OR 30%), Method: PREINCUBATION
# [7] = Test System: AMES SALMONELLA TYPHIMURIUM, Strain/Indicator: TA1537, Metabolic Activation: RAT, LIVER, S-9, AROCLOR 1254 (10 OR 30%), Method: PREINCUBATION
# [8] = Test System: AMES SALMONELLA TYPHIMURIUM, Strain/Indicator: TA100, Metabolic Activation: NONE, Method: STANDARD PLATE
smiles,measurement,setting,value
CN(Cc1cnc2nc(N)nc(N)c2n1)c1c(Cl)cc(C(=O)N[C@@H](CCC(=O)O)C(=O)O)cc1Cl,mutagenic call,[1],inactive; negative
same,mutagenic call,"Test System: AMES SALMONELLA TYPHIMURIUM, Strain/Indicator: TA97, Metabolic Activation: NONE, Method: PREINCUBATION",inactive; negative
same,mutagenic call,[2],inactive; negative
same,mutagenic call,"Test System: AMES SALMONELLA TYPHIMURIUM, Strain/Indicator: TA98, Metabolic Activation: HAMSTER, LIVER, S-9, AROCLOR 1254 (10 OR 30%), Method: PREINCUBATION",inactive; negative
same,mutagenic call,"Test System: AMES SALMONELLA TYPHIMURIUM, Strain/Indicator: TA98, Metabolic Activation: NONE, Method: PREINCUBATION",inactive; negative
same,mutagenic call,"Test System: AMES SALMONELLA TYPHIMURIUM, Strain/Indicator: TA98, Metabolic Activation: RAT, LIVER, S-9, AROCLOR 1254 (10 OR 30%), Method: PREINCUBATION",inactive; negative
same,mutagenic call,"Test System: AMES SALMONELLA TYPHIMURIUM, Strain/Indicator: TA100, Metabolic Activation: HAMSTER, LIVER, S-9, AROCLOR 1254 (10 OR 30%), Method: PREINCUBATION",inactive; negative
same,mutagenic call,[3],inactive; negative
same,mutagenic call,"Test System: AMES SALMONELLA TYPHIMURIUM, Strain/Indicator: TA100, Metabolic Activation: RAT, LIVER, S-9, AROCLOR 1254 (10 OR 30%), Method: PREINCUBATION",inactive; negative
same,mutagenic call,[4],inactive; negative
same,mutagenic call,"Test System: AMES SALMONELLA TYPHIMURIUM, Strain/Indicator: TA1535, Metabolic Activation: NONE, Method: PREINCUBATION",inactive; negative
same,mutagenic call,[5],inactive; negative
same,mutagenic call,[6],inactive; negative
same,mutagenic call,"Test System: AMES SALMONELLA TYPHIMURIUM, Strain/Indicator: TA1537, Metabolic Activation: NONE, Method: PREINCUBATION",inactive; negative
same,mutagenic call,[7],inactive; negative
CCCCOc1c(C(=O)NOC(C)=O)ccc2ccccc12,mutagenic call,[8],active; positive
same,mutagenic call,"Test System: AMES SALMONELLA TYPHIMURIUM, Strain/Indicator: TA100, Metabolic Activation: RAT, S-9, AROCLOR, Method: STANDARD PLATE",active; positive
Clc1nc(Cl)nc(Nc2ccccc2Cl)n1,mutagenic call,[1],inactive; negative
same,mutagenic call,[2],inactive; negative
same,mutagenic call,"Test System: AMES SALMONELLA TYPHIMURIUM, Strain/Indicator: TA98, Metabolic Activation: HAMSTER, LIVER, S-9, AROCLOR 1254 (10%), Method: PREINCUBATION",inactive; negative
same,mutagenic call,"Test System: AMES SALMONELLA TYPHIMURIUM, Strain/Indicator: TA98, Metabolic Activation: HAMSTER, LIVER, S-9, AROCLOR 1254 (30%), Method: PREINCUBATION",inactive; negative
same,mutagenic call,"Test System: AMES SALMONELLA TYPHIMURIUM, Strain/Indicator: TA98, Metabolic Activation: RAT, LIVER, S-9, AROCLOR 1254 (10%), Method: PREINCUBATION",inactive; negative
same,mutagenic call,"Test System: AMES SALMONELLA TYPHIMURIUM, Strain/Indicator: TA98, Metabolic Activation: RAT, LIVER, S-9, AROCLOR 1254 (30%), Method: PREINCUBATION",inactive; negative
same,mutagenic call,"Test System: AMES SALMONELLA TYPHIMURIUM, Strain/Indicator: TA100, Metabolic Activation: HAMSTER, LIVER, S-9, AROCLOR 1254 (10%), Method: PREINCUBATION",inactive; negative
same,mutagenic call,"Test System: AMES SALMONELLA TYPHIMURIUM, Strain/Indicator: TA100, Metabolic Activation: HAMSTER, LIVER, S-9, AROCLOR 1254 (30%), Method: PREINCUBATION",inactive; negative
same,mutagenic call,[3],inactive; negative
same,mutagenic call,"Test System: AMES SALMONELLA TYPHIMURIUM, Strain/Indicator: TA100, Metabolic Activation: RAT, LIVER, S-9, AROCLOR 1254 (10%), Method: PREINCUBATION",inactive; negative
same,mutagenic call,"Test System: AMES SALMONELLA TYPHIMURIUM, Strain/Indicator: TA100, Metabolic Activation: RAT, LIVER, S-9, AROCLOR 1254 (30%), Method: PREINCUBATION",inactive; negative
same,mutagenic call,[4],inactive; negative
same,mutagenic call,[5],inactive; negative
same,mutagenic call,[6],inactive; negative
same,mutagenic call,[7],inactive; negative
same,mutagenic call,"Test System: CHINESE HAMSTER OVARY, Strain/Indicator: CHO-K1-BH4 (HGPRT)/6-THIOGUANINE, Metabolic Activation: NONE",inactive; negative
same,mutagenic call,"Test System: CHINESE HAMSTER OVARY, Strain/Indicator: CHO-K1-BH4 (HGPRT)/6-THIOGUANINE, Metabolic Activation: S-9",inactive; negative
same,mutagenic call,"Test System: E. COLI, Strain/Indicator: WP2 UVRA, Metabolic Activation: HAMSTER, LIVER, S-9, AROCLOR 1254, Method: STANDARD PLATE",inactive; negative
same,mutagenic call,"Test System: E. COLI, Strain/Indicator: WP2 UVRA, Metabolic Activation: HAMSTER, LIVER, S-9, Method: STANDARD PLATE",inactive; negative
same,mutagenic call,"Test System: E. COLI, Strain/Indicator: WP2 UVRA, Metabolic Activation: MOUSE, LIVER, S-9, AROCLOR 1254, Method: STANDARD PLATE",inactive; negative
same,mutagenic call,"Test System: E. COLI, Strain/Indicator: WP2 UVRA, Metabolic Activation: MOUSE, LIVER, S-9, Method: STANDARD PLATE",inactive; negative
same,mutagenic call,"Test System: E. COLI, Strain/Indicator: WP2 UVRA, Metabolic Activation: NONE, Method: STANDARD PLATE",inactive; negative
same,mutagenic call,"Test System: E. COLI, Strain/Indicator: WP2 UVRA, Metabolic Activation: RAT, LIVER, S-9, AROCLOR 1254, Method: STANDARD PLATE",inactive; negative
same,mutagenic call,"Test System: E. COLI, Strain/Indicator: WP2 UVRA, Metabolic Activation: RAT, LIVER, S-9, Method: STANDARD PLATE",inactive; negative
same,mutagenic call,"Test System: MOUSE LYMPHOMA, Strain/Indicator: L5178Y (TK+/TK-), Metabolic Activation: NONE, Method: SUSPENSION/PLATE",active; positive
same,mutagenic call,"Test System: MOUSE LYMPHOMA, Strain/Indicator: L5178Y (TK+/TK-), Metabolic Activation: RAT, LIVER, S-9, AROCLOR 1254, Method: SUSPENSION/PLATE",active; positive
CN(OC(=O)c1ccccc1)c1ccc(N=Nc2ccccc2)cc1,mutagenic call,"Test System: AMES SALMONELLA TYPHIMURIUM, Strain/Indicator: TA98, Metabolic Activation: RAT, LIVER, S-9, KC500 OR PHENOBARBITAL, Method: LIQUID SUSPENSION",active; positive
same,mutagenic call,"Test System: AMES SALMONELLA TYPHIMURIUM, Strain/Indicator: TA100, Metabolic Activation: RAT, LIVER, S-9, KC500 OR PHENOBARBITAL, Method: LIQUID SUSPENSION",active; positive
N.NC1CCCC1.O=C([O-])CC(O)C(=O)[O-].[Pt+2] (centres undefined),mutagenic call,"End Point: IN VIVO MICRONUCLEUS, Test System: BONE MARROW, Species: MOUSE, Strain/Sex: WILD TYPE/MALE, Route: INTRAPERITONEAL",active; positive
NC(=O)c1cccc2cccnc12,mutagenic call,"Test System: AMES SALMONELLA TYPHIMURIUM, Strain/Indicator: TA98, Metabolic Activation: NONE, Method: STANDARD PLATE",inactive; negative
same,mutagenic call,"Test System: AMES SALMONELLA TYPHIMURIUM, Strain/Indicator: TA98, Metabolic Activation: RAT, LIVER, S-9, AROCLOR 1254, Method: STANDARD PLATE",inactive; negative
same,mutagenic call,[8],inactive; negative
same,mutagenic call,"Test System: AMES SALMONELLA TYPHIMURIUM, Strain/Indicator: TA100, Metabolic Activation: RAT, LIVER, S-9, AROCLOR 1254, Method: STANDARD PLATE",active; positive
same,mutagenic call,"Test System: AMES SALMONELLA TYPHIMURIUM, Strain/Indicator: TA1535, Metabolic Activation: NONE, Method: STANDARD PLATE",inactive; negative
same,mutagenic call,"Test System: AMES SALMONELLA TYPHIMURIUM, Strain/Indicator: TA1535, Metabolic Activation: RAT, LIVER, S-9, AROCLOR 1254, Method: STANDARD PLATE",inactive; negative
same,mutagenic call,"Test System: AMES SALMONELLA TYPHIMURIUM, Strain/Indicator: TA1537, Metabolic Activation: NONE, Method: STANDARD PLATE",inactive; negative
same,mutagenic call,"Test System: AMES SALMONELLA TYPHIMURIUM, Strain/Indicator: TA1537, Metabolic Activation: RAT, LIVER, S-9, AROCLOR 1254, Method: STANDARD PLATE",inactive; negative
